Results as given in ChEMBL document CHEMBL2380205, “Discovery of a new class of natural product-inspired quinazolinone hybrid as potent antileishmanial agents” (J Med Chem, 2013).
pIC50: −log10 of the molar value.

Legend:
Leishmania donovani [1] = assay: Antileishmanial activity against amastigotes of Leishmania donovani MHOM/IN/60/Dd8 infected in mouse J-774A.1 cells after 72 hrs by luciferase reporter gene assay; type: functional, organism-based; conditions: MHOM/IN/60/Dd8, J774.A1, 72 h
Leishmania donovani [2] = assay: Antileishmanial activity against promastigotes of Leishmania donovani MHOM/IN/60/Dd8 after 72 hrs by luciferase reporter gene assay; type: functional, organism-based; conditions: MHOM/IN/60/Dd8, 72 h
[3] = (§1) Selectivity index, ratio of CC50 for mouse J774A1 cells to IC50 for amastigotes of Leishmania donovani MHOM/IN/60/Dd8 infected in mouse J-774A.1 cells; type: functional, J774.A1
[4] = Cytotoxicity against mouse J774A1 cells after 72 hrs by MTT assay; type: cell-based, J774.A1
[5] = Cytotoxicity against african green monkey Vero cells after 72 hrs by MTT assay; type: cell-based; conditions: chlorocebus sabaeus
J774.A1 = assay: as §1; type: functional
Leishmania donovani [6] = assay: Antileishmanial activity against amastigotes of Leishmania donovani MHOM/IN/60/Dd8 infected in golden hamster assessed as amastigote count at 40 mg/kg/day, ip administered for 5 days measured on day 7 of post last dose by Giemsa staining; type: functional, organism-based
[7] = Lipophilicity, log P of the compound; type: physicochemical; conditions: octanol/water
Leishmania donovani [8] = assay: Antileishmanial activity against amastigotes of Leishmania donovani MHOM/IN/60/Dd8 infected in golden hamster assessed as amastigote count at 50 mg/kg/day, ip administered for 5 days measured on day 7 of post last dose by Giemsa staining; type: functional; conditions: MHOM/IN/60/Dd8, ip, route intraperitoneal

Compound | pIC50 (Leishmania donovani [1]) | pIC50 (Leishmania donovani [2]) | Ratio CC50/IC50 [3] | CC50 at 72 h [4] | CC50 at 72 h [5] | Ratio CC50/IC50 (J774.A1) | inhibition (Leishmania donovani [6]) | logP [7] | inhibition in vivo at 50 mg/kg/day (Leishmania donovani [8])
CC1(c2ccc(Nc3nc(N4CCCc5ccccc54)nc(N4CCCc5ccccc54)n3)cc2)NC(=O)c2ccccc2N1 (stereo not given) | < 4.40 | 4.48 |  |  |  |  |  |  | 
COc1ccc(C(Nc2ccc(C3(C)NC(=O)c4ccccc4N3)cc2)c2nnnn2C(C)(C)C)c2ccccc12 (stereo not given) | 4.81 | 5.59 |  |  |  |  |  |  | 
COc1cc(-c2cc(-c3ccc(C4NC(=O)c5ccccc5N4)cc3)nc(N)n2)cc(OC)c1OC (stereo not given) | 5.42 | 5.46 | 26.97 | 103 µM | 85.9 µM |  |  |  | 
Sodium stibogluconate |  |  |  |  |  | > 8.57 | 86.9% |  | 
COc1ccc(C(Nc2ccc(C3(C)NC(=O)c4ccccc4N3)cc2)c2nnnn2C(C)(C)C)cc1 (stereo not given) | 4.88 | 5.52 | >30.65 | > 400 µM | > 400 µM |  |  |  | 
Nc1nc(-c2ccc(F)cc2)cc(-c2ccc(C3NC(=O)c4ccccc4N3)cc2)n1 (stereo not given) | 4.61 | 5.01 |  |  |  |  |  |  | 
CC(C)c1ccc(C(C(=O)NC(C)(C)C)N(C(=O)c2cccc(Cl)c2)c2ccc(C3(C)NC(=O)c4ccccc4N3)cc2)cc1 (stereo not given) | 4.92 | < 4.40 | >33.25 | > 400 µM | > 400 µM |  |  |  | 
COc1cccc(-c2cc(-c3ccc(C4NC(=O)c5ccccc5N4)cc3)nc(N)n2)c1OC (stereo not given) | 5.35 | 5.37 | >90.29 | > 400 µM | > 400 µM |  |  |  | 
CC(C)(C)Nc1nc(Nc2ccc(C3(C)NC(=O)c4ccccc4N3)cc2)nc(NC(C)(C)C)n1 (stereo not given) | 5.26 | 5.99 | 11.07 | 60.7 µM | 159 µM |  |  |  | 
CCCCNc1nc(NCCCC)nc(Nc2ccc(C3(C)NC(=O)c4ccccc4N3)cc2)n1 (stereo not given) | 5.32 | 5.11 | 8.35 | 40.1 µM | 142 µM |  |  |  | 
CC1(c2ccc(NC(c3ccc(F)cc3)c3nnnn3C(C)(C)C)cc2)NC(=O)c2ccccc2N1 (stereo not given) | < 4.70 | 5.43 |  |  |  |  |  |  | 
CC1(c2ccc(NC(c3ccncc3)c3nnnn3C(C)(C)C)cc2)NC(=O)c2ccccc2N1 (stereo not given) | < 4.40 | < 4.40 |  |  |  |  |  |  | 
CC(C)(C)n1nnnc1C(c1ccc(C2NC(=O)c3ccccc3N2)cc1)N1CCc2ccccc2C1 (stereo not given) | < 4.40 | 5.90 |  |  |  |  |  |  | 
CC1(c2ccc(Nc3nc(N4CCOCC4)nc(N4CCOCC4)n3)cc2)NC(=O)c2ccccc2N1 (stereo not given) | < 4.40 | < 4.40 |  |  |  |  |  |  | 
CC1(c2ccc(Nc3nc(N4CCC(O)CC4)nc(N4CCC(O)CC4)n3)cc2)NC(=O)c2ccccc2N1 (stereo not given) | < 4.40 | < 4.40 |  |  |  |  |  |  | 
CC1(c2ccc(NC(c3ccc(Cl)cc3)c3nnnn3C3CCCCC3)cc2)NC(=O)c2ccccc2N1 (stereo not given) | 4.95 | 4.40 | >35.3 | > 400 µM | > 400 µM |  |  |  | 
CCCCCNC(c1ccc(C2NC(=O)c3ccccc3N2)cc1)c1nnnn1C(C)(C)C (stereo not given) | < 4.40 | 5.72 |  |  |  |  |  |  | 
CC(C)c1ccc(C(Nc2ccc(C3(C)NC(=O)c4ccccc4N3)cc2)c2nnnn2C(C)(C)C)cc1 (stereo not given) | 5.11 | 5.40 | >51.54 | > 400 µM | > 400 µM |  |  | 6.03 | 54%
CC(C)(C)n1nnnc1C(NCc1ccccc1)c1ccc(C2NC(=O)c3ccccc3N2)cc1 (stereo not given) | < 4.40 | 5.44 |  |  |  |  |  |  | 
Nc1nc(-c2ccc(C3NC(=O)c4ccccc4N3)cc2)cc(-c2ccccc2Cl)n1 (stereo not given) | 4.82 | 5.05 |  |  |  |  |  |  | 
COc1cc(C(Nc2ccc(C3(C)NC(=O)c4ccccc4N3)cc2)c2nnnn2C(C)(C)C)cc(OC)c1OC (stereo not given) | < 4.40 | < 4.40 |  |  |  |  |  |  | 
CC1(c2ccc(Nc3nc(NCc4ccccc4)nc(NCc4ccccc4)n3)cc2)NC(=O)c2ccccc2N1 (stereo not given) | 5.17 | 5.20 | >59.52 | > 400 µM | 359 µM |  |  | 6.49 | 44.8%
CCCCCNc1nc(NCCCCC)nc(Nc2ccc(C3(C)NC(=O)c4ccccc4N3)cc2)n1 (stereo not given) | 5.62 | 5.13 | >165.29 | > 400 µM | > 400 µM |  |  | 7.57 | 43%

Compound | pIC50 (Leishmania donovani [1]) | pIC50 (Leishmania donovani [2]) | Ratio CC50/IC50 [3] | CC50 at 72 h [4] | CC50 at 72 h [5] | Ratio CC50/IC50 (J774.A1) | inhibition (Leishmania donovani [6]) | logP [7] | inhibition in vivo at 50 mg/kg/day (Leishmania donovani [8])
CC1(c2ccc(NC(c3cccc4ccccc34)c3nnnn3C(C)(C)C)cc2)NC(=O)c2ccccc2N1 (stereo not given) | < 4.70 | 5.41 |  |  |  |  |  |  | 
CC(C)(C)NC(=O)C(c1ccc(Cl)cc1)N(C(=O)c1cccc(Cl)c1)c1ccc(C2(C)NC(=O)c3ccccc3N2)cc1 (stereo not given) | 4.87 | < 4.40 | >29.67 | > 400 µM | > 400 µM |  |  |  | 
CC1(c2ccc(NC(c3ccc(Br)cc3)c3nnnn3C(C)(C)C)cc2)NC(=O)c2ccccc2N1 (stereo not given) | 5.07 | 4.62 | 47.28 | 400 µM | > 400 µM |  |  |  | 
Nc1nc(-c2ccc(Br)cc2)cc(-c2ccc(C3NC(=O)c4ccccc4N3)cc2)n1 (stereo not given) | 5.15 | 5.55 | 17.82 | 125 µM | > 400 µM |  |  |  | 
COc1ccc(CNc2nc(NCc3ccc(OC)cc3)nc(Nc3ccc(C4(C)NC(=O)c5ccccc5N4)cc3)n2)cc1 (stereo not given) | < 4.40 | < 4.40 |  |  |  |  |  |  | 
COc1ccc(C(Nc2ccc(C3(C)NC(=O)c4ccccc4N3)cc2)c2nnnn2C2CCCCC2)cc1 (stereo not given) | 4.78 | < 4.40 |  |  |  |  |  |  | 
CCCCNC(c1ccc(C2NC(=O)c3ccccc3N2)cc1)c1nnnn1C(C)(C)C (stereo not given) | < 4.40 | 5.25 |  |  |  |  |  |  | 
Nc1nc(-c2ccccc2)cc(-c2ccc(C3NC(=O)c4ccccc4N3)cc2)n1 (stereo not given) | 4.77 | 5.39 |  |  |  |  |  |  | 
CC1(c2ccc(N(C(=O)c3cccc(Cl)c3)C(C(=O)NC3CCCCC3)c3ccc(Cl)cc3)cc2)NC(=O)c2ccccc2N1 (stereo not given) | 4.80 | 4.40 |  |  |  |  |  |  | 
CCCNc1nc(NCCC)nc(Nc2ccc(C3(C)NC(=O)c4ccccc4N3)cc2)n1 (stereo not given) | 5.05 | 5.05 | >45.09 | > 400 µM | > 400 µM |  |  |  | 
COc1ccc(-c2cc(-c3ccc(C4NC(=O)c5ccccc5N4)cc3)nc(N)n2)cc1 (stereo not given) | 5.00 | 5.24 | 17.64 | 178 µM | 124 µM |  |  |  | 
CC1(c2ccc(Nc3nc(NCCCN4CCOCC4)nc(NCCCN4CCOCC4)n3)cc2)NC(=O)c2ccccc2N1 (stereo not given) | < 4.40 | < 4.40 |  |  |  |  |  |  | 
CC(C)c1ccc(C(Nc2ccc(C3(C)NC(=O)c4ccccc4N3)cc2)c2nnnn2C2CCCCC2)cc1 (stereo not given) | 5.04 | 5.15 | >44.1 | > 400 µM | > 400 µM |  |  |  | 
Nc1nc(-c2ccc(Cl)cc2)cc(-c2ccc(C3NC(=O)c4ccccc4N3)cc2)n1 (stereo not given) | 5.72 | 5.51 | 43.46 | 82.2 µM | 323 µM |  |  | 4.49 | 35.8%
COc1ccc(C(C(=O)NC2CCCCC2)N(C(=O)c2cccc(Cl)c2)c2ccc(C3(C)NC(=O)c4ccccc4N3)cc2)cc1 (stereo not given) | 4.81 | < 4.40 |  |  |  |  |  |  | 
CC1(c2ccc(Nc3nc(Nc4ccccc4)nc(Nc4ccccc4)n3)cc2)NC(=O)c2ccccc2N1 (stereo not given) |  | 5.52 |  |  |  |  |  |  | 
CC(C)c1ccc(C(C(=O)NC2CCCCC2)N(C(=O)c2cccc(Cl)c2)c2ccc(C3(C)NC(=O)c4ccccc4N3)cc2)cc1 (stereo not given) | 5.32 | < 4.40 | >84.38 | > 400 µM | > 400 µM |  |  | 8.53 | 48%
CC1(c2ccc(Nc3nc(N4CCCCCC4)nc(N4CCCCCC4)n3)cc2)NC(=O)c2ccccc2N1 (stereo not given) | 5.59 | 5.22 | 91.64 | 237 µM | > 400 µM |  |  |  | 37.4%
CC1(c2ccc(NC(c3ccc(Cl)cc3)c3nnnn3C(C)(C)C)cc2)NC(=O)c2ccccc2N1 (stereo not given) | 5.15 | 5.92 | >56.65 | > 400 µM | > 400 µM |  |  |  | 
CC1(c2ccc(Nc3nc(NCc4ccco4)nc(NCc4ccco4)n3)cc2)NC(=O)c2ccccc2N1 (stereo not given) | < 4.70 | 4.88 |  |  |  |  |  |  | 
COc1ccc(C(C(=O)NC(C)(C)C)N(C(=O)c2cccc(Cl)c2)c2ccc(C3(C)NC(=O)c4ccccc4N3)cc2)cc1 (stereo not given) | 4.53 | < 4.40 |  |  |  |  |  |  | 
CC(C)(C)NC(=O)C(c1ccc(Br)cc1)N(C(=O)c1cccc(Cl)c1)c1ccc(C2(C)NC(=O)c3ccccc3N2)cc1 (stereo not given) | 4.81 | < 4.40 |  |  |  |  |  |  | 
CC1(c2ccc(NC(c3ccc(Br)cc3)c3nnnn3C3CCCCC3)cc2)NC(=O)c2ccccc2N1 (stereo not given) | 5.03 | < 4.40 | >42.46 | > 400 µM | > 400 µM |  |  |  | 
